Here are results for one compound from patent US9260417B2, “Therapeutic methods and compositions involving allosteric kinase inhibition” (AMITECH THERAPEUTIC SOLUTIONS, INC., priority 2010, dated 2016).

The structures appear in SMILES notation.

The target of data set [1] is CDK8 (Homo sapiens (Human), UniProt P49336). Kind of data set: KINOMEscan competitive binding assay. Particulars: 10 uM.
Data set [2] deals with XPA1-RFP. Kind of data set: Tumor cell viability. Particulars: Pancreatic AC XPA1-RFP, K-Ras. It is filed as cell-based, human. As to the method:
(§1) For XTT assays, cells were grown in 96-well plates overnight and all assays were conducted in growth medium will full serum and additives. Compounds were serially diluted in DMSO and then further diluted into the medium to give the appropriate concentration while minimizing precipitation associated with serial diluting in medium alone Inhibitors were added for 72 h and cell viability was quantified at 450 nm after the addition of 1 mg/ml XTT solution (Sigma-Aldrich) in phenol-red free DMEM medium containing […] (Sigma-Aldrich). Dose-response curves were plotted using GraphPad Prism software and EC50s were calculated using this program.

Data set [3] relates to 1205Lu. Kind of data set: Tumor cell viability. It is filed as cell-based, human. Particulars: Melanoma 1205Lu, B-RAF V600E. As to the method: as §1
Data set [4] relates to 1205 Lu melanoma cells. Kind of data set: 1205 Lu melanoma subcutaneous xenograft. The class given is in vivo, mice. The note with it: 50 mg/kg, bid, ip for 2 weeks. As to the method: Human 1205 Lu melanoma cells, which express BRAF V600E, were subcutaneously implanted into the flank of 6-8 week old female Nu/Nu mice. The tumor cells were trypsinized and resuspendend in 1:1 PBS:growth factor depeleted Matrigel (BD Biosciences) and […] containing 1×10^6 cells was injected into the flank. An excess of mice bearing tumors were utilized and groups of 6 animals were chosen based on the symmetry of the tumor and randomized to give each group an average of 50 mm^3 (day 10). […] The vehicle was 10% HS-15 (known as Solutol, BASF, Inc.) in 3.33% dextrose. Tumor growth was monitored by measuring the tumor length and width with precision calipers every 3 days and calculating tumor volume using the following formula: Tumor volume=0.5*(length)*(width)^2, provided the smaller measurement was utilized as the length.

For data set [5], the target named is MYO3A (Homo sapiens (Human), UniProt Q8NEV4). Kind of data set: KINOMEscan competitive binding assay. The note with it: 10 uM.
For data set [6], the target named is CSF1R (Homo sapiens (Human), UniProt P07333). Kind of data set: KINOMEscan competitive binding assay. Particulars: 10 uM.
Description: For the competitive binding assay, test compounds were screened at 10 μM against 70 diverse kinase targets for competitive binding using the KINOMEscan™ technology (Ambit Biosciences) (Karaman, et al. (2008) Nature biotechnology 26:127-132). 11-point Kd curves were determined for hits identified during the initial screen.
Data set [7] relates to XPA-1-RFP pancreatic tumor xenografts. Kind of data set: Orthotopic pancreatic carcinoma model. It is filed as in vivo, mice. The note with it: 50 mg/kg. As to the method: Drug treatments were started 3 days after surgical orthotopic implantation (SOI) of XPA1-RFP tumors and tumor progression was monitored every 3 days by whole animal imaging. Scale bar=10 mm. […] Tumor surface area was calculated by adding the total pixels of both the ventral and lateral images of the tumor. *p=0.034. (FIG. 5C) Average body weight of the mice measured each day of whole animal imaging described in FIGS. 5A and 5B above. (FIG. 5D) Total weights of resected primary tumors on day 15 post (SOI), *p=0.022. (FIG. 5E) Representative fluorescent images of endothelial GFP expression (GFP expression driven by the Nestin promoter) within the XPA1-RFP tumors after resection. Images taken 15 days post SOI. Scale bar=200 μm. (FIG. 5F) Plot of tumor vessel density from images acquired as in FIG. 5E. Blood vessels imaged as in 5E were converted to length (mm) and normalized to the tumor volume (mm^3), *p=0.01.
Orthotopic human pancreatic cancer xenografts from the pancreatic cancer cell line XPA1-RFP were established in nude mice by surgical orthotopic implantation (SOI). Briefly, subcutaneous XPA1-RFP tumors in the exponential growth phase were harvested and sectioned into 1 mm^3 pieces in serum-free RPMI medium. Mice were anesthetized using 50% ketamine, 38% xylazine and 12% agepromazine maleate injected intramuscularly at a dose of 2 μl/g, and their abdominal wall was sterilized with alcohol. A small incision was then made in the right pararectal line through the skin and peritoneum. The body of the pancreas was exposed and a 1 mm^3 tumor fragment was sutured to the pancreas using a single 8-0 nylon surgical suture (Davis-Geck, Inc. Manati, Puerto Rico). The pancreas was then returned to the abdomen and the peritoneum and skin were closed in two layers using 6-0 vicryl surgical suture.
At day 3 after SOL the animals began treatment with twice-daily IP injections of either compound, 6 (50 mg/kg dose in 200 μl total volume), or vehicle control at 12 hour intervals. […] At day 12 post-SOI the animals were sacrificed and their tumors were excised, weighed, and measured in 3 dimensions in order to calculate tumor volume. The tumor volume was calculated with the formula: volume=height×width×length×0.52. […] The total vessel length for each tumor was measured using Image-J software and converted to vessel density by dividing total tumor vessel length by tumor volume. […]
RFP expressing XPA-1 pancreatic tumor xenografts were implanted into the pancreas of Nestin GFP-mice enabling detection of both developing blood vessels (GFP) and primary tumor (RFP). […] Tumor growth was monitored non-invasively by whole body imaging using the Olympus OV100 Small Animal Imaging System to detect the RFP signal from the tumor implant within the pancreas.

Chain of CDK8 (P49336 whole entry): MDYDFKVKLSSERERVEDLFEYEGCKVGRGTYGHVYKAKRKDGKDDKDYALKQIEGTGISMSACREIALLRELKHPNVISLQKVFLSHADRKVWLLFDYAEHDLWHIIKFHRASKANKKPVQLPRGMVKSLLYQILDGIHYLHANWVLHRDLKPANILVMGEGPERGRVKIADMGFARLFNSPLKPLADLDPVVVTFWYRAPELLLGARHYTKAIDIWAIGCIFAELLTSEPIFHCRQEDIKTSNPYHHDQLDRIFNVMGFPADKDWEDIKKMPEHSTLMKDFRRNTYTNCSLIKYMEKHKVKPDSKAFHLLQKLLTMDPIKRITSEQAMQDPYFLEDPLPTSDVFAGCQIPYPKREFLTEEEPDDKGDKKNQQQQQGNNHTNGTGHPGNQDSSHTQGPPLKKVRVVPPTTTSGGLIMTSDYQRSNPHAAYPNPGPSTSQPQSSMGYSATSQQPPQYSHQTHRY
Chain of MYO3A (Q8NEV4 whole entry): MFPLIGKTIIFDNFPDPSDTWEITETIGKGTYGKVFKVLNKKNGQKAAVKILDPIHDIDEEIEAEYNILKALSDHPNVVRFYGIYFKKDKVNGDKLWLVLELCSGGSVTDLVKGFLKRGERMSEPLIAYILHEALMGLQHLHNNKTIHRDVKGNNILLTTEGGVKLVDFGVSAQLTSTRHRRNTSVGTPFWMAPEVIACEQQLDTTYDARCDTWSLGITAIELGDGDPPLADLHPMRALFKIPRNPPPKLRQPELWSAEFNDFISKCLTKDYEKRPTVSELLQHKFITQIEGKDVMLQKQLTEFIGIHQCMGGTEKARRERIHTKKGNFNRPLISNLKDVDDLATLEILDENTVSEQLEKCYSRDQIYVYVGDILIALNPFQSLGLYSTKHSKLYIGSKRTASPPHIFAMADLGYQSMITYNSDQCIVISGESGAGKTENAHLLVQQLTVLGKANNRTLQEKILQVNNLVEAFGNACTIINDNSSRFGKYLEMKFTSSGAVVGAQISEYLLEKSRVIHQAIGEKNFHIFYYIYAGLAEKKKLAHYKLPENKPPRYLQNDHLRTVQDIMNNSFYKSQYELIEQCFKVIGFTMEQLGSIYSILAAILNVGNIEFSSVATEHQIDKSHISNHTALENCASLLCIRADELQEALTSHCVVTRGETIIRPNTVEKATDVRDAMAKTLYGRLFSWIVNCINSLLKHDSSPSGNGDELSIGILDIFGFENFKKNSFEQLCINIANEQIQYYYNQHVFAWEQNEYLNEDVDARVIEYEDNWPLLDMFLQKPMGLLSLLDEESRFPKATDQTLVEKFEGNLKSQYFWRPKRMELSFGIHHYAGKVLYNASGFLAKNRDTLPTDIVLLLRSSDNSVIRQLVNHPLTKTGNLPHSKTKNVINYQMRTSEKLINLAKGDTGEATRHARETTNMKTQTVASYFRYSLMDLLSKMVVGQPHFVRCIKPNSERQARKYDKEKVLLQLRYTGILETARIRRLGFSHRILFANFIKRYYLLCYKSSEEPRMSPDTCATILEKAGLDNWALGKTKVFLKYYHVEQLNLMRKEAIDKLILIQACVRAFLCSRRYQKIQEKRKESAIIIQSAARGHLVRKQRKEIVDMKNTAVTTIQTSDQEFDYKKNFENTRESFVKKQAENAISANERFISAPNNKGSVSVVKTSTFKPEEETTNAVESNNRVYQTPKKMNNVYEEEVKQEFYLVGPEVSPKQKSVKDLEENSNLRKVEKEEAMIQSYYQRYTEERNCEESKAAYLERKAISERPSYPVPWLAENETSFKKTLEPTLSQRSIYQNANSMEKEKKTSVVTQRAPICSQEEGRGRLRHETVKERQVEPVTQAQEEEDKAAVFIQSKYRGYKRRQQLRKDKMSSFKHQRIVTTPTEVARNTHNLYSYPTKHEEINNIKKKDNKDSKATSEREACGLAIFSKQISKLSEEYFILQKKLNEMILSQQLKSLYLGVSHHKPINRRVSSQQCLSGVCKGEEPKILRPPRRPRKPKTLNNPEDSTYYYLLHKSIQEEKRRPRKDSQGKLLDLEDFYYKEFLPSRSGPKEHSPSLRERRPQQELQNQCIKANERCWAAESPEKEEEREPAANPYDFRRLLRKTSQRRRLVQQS
Chain of CSF1R (P07333 20-972): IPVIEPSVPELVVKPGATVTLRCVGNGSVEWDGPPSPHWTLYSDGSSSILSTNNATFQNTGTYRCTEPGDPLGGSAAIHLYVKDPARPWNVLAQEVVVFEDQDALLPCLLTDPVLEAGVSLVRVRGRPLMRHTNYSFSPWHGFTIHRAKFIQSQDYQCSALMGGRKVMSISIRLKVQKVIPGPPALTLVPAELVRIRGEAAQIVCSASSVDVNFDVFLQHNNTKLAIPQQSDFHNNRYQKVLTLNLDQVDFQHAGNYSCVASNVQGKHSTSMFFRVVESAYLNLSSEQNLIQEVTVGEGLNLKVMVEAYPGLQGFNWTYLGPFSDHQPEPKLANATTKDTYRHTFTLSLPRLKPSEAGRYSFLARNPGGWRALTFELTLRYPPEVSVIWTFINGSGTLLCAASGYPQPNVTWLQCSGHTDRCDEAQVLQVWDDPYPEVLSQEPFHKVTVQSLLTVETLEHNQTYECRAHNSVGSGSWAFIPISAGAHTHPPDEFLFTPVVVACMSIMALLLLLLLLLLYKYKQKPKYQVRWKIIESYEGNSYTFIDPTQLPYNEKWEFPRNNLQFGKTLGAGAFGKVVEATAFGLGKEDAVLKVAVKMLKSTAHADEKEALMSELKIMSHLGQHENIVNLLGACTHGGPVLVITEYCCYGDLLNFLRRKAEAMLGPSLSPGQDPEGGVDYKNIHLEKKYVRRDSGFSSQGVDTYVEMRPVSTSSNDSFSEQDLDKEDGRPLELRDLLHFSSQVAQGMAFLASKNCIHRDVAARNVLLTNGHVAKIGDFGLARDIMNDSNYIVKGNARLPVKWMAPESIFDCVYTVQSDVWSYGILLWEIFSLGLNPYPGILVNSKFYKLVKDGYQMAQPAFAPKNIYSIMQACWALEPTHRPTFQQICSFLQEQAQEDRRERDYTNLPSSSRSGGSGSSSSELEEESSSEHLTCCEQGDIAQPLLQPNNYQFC

The EC50 is the concentration needed to bring the measured effect to its halfway point. In the case of `CSc1nc(N)cc(Oc2ccc(-c3nnc(Nc4cccc(C(F)(F)F)c4)[nH]3)cc2)n1` [Compound 6], the “% Control” value in data set [1] was determined as 67%; in data set [5] it was 94%; in data set [6] it was 51%. Besides, the concentration for a half-maximal effect (EC50) in data set [2] turned out to be 0.28 µM; in data set [3], 0.83 µM. In data set [4], the melanoma tumor growth entry is “suppresses melanoma tumor growth in vivo”. In data set [7] (bid), the body weight entry was “no weight loss”. Further, in data set [7] (bid (vehicle 2.5)), the “mean vessel length/tumor volume” value stood at 0.2 mm/mm^3. For the same compound, the tumor growth result in data set [7] (bid, from day 3, 12 days post SOI) is recorded as “completely suppressed”. In addition, in data set [7] (resected on day 15, bid (vehicle 74.1 mg)), the average tumor weight is recorded as 26.7 mg.
